Measured values published in US20240239799A1, “(S)-1-(5-((PYRIDIN-3-YL)THIO)PYRAZIN-2-YL)-4'H,6'H-SPIRO[PIPERIDINE-4,5'-PYRROLO [1,2-B]PYRAZOL]-4'-AMINE DERIVATIVES AND SIMILAR COMPOUNDS AS SHP2 INHIBITORS FOR THE TREATMENT OF E.G. CANCER” (C.N.C.C.S. S.C.A.R.L. COLLEZIONE NAZIONALE DEI COMPOSTI …, priority 2021, published 2024).
Where two headings read alike, the source gives them in different places.

Tests used:
[1] = molecular target: T1, SHP-2 enzyme (Met1-Leu525) (Homo sapiens, UniProt Q06124); assay: SHP2 inhibition enzymatic assay (DiFMUP substrate, IRS1 peptide activation); type: biochemical; conditions: 0.5 nM SHP-2, 500 nM IRS1 peptide, 75 μM DiFMUP; read-out: SHP2wt - IC50
T1 construct: synthetized by Origene, Met1-Leu525, cat #TP750155; purchased Origene TP750155
T1 sequence (Q06124 1-525): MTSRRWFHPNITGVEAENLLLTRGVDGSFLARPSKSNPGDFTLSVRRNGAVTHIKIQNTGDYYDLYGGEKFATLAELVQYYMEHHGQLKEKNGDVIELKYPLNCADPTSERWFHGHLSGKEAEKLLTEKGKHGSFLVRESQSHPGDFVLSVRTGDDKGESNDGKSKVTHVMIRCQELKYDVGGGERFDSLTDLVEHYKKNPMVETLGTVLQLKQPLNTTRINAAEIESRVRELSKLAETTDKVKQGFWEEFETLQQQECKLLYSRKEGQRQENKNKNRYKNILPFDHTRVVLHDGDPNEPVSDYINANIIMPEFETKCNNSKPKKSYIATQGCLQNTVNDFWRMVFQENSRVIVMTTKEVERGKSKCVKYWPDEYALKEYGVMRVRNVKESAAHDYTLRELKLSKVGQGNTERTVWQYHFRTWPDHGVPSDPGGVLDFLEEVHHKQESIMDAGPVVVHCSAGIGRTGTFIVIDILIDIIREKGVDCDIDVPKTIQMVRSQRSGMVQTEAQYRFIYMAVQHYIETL

[2] = molecular target: T2, SHP2 (Avi-G4SG4S-PTPN11(1-525)) (Homo sapiens, UniProt Q06124); assay: Binding kinetic assay by surface plasmon resonance (SPR); conditions: Biacore T200, single cycle kinetic, 1:1 Langmuir binding model; for koff: triplicate
T2 construct: (Avi-G4SG4S-PTPN11(1-525)); purchased Viva Biotech Ltd
T2 sequence (Q06124 1-525): T1 sequence (Q06124 1-525)
Description: A binding assay for measuring SHP2 inhibitors binding kinetic was developed using a Biacore T200 Instrument (Cytiva, Sweden). […] Data analysis was performed by Biacore T200 Evaluation software (Cytiva), and kinetic parameters were evaluated by a global fitting according to a 1:1 Langmuir binding model. Each molecule was tested in triplicate on separate flow channels.

[3] = tested on: phospho-ERK1/2 (Thr202/Tyr204) in KYSE-520 cells; assay: Phospho-ERK cellular assay (TR-FRET); type: cell-based; conditions: Homo sapiens, KYSE-520, 2 h, read-out: pERK IC50
Method in brief: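 KYSE-520 cells plated overnight, then exposed to compound for 2 h at 37° C and lysed. Phospho-ERK1/2 (Thr202/Tyr204) detected by TR-FRET with Eu-cryptate and D2 antibodies after overnight incubation at rt. IC50 from four-parameter fit, normalised to DMSO (0%) and no-cell (100%) controls.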

SMILES	IC50 [1]	Residence time 1/koff SPR [2]	koff [2]	IC50 ([3]; KYSE-520 cells, 2 h at 37° C.)	IC50 [3]
Cn1c(N2CCC3(CC2)Cn2nccc2[C@H]3N)nc2nc(Sc3ccnc(N)c3Cl)cnc21 [Example 74, (S)-1-(5-((2-amino-3-chloropyridin-4-yl)thio)-1-methyl-1H-imidazo[4,5-b]pyrazin-2-yl)-4′H,6′H-spiro[piperidine-4,5′-pyrrolo[1,2-b]pyrazol]-4′-amine]	50 to 300 nM			> 500 nM	
N[C@@H]1c2ccnn2CC12CCN(c1cnc(Sc3ccnc4c(F)cccc34)cn1)CC2 [Example 79, (S)-1-(5-((8-fluoroquinolin-4-yl)thio)pyrazin-2-yl)-4′H,6′H-spiro[piperidine-4,5′-pyrrolo[1,2-b]pyrazol]-4′-amine]	≤ 50 nM			< 100 nM	
N[C@@H]1c2ccnn2CC12CCN(c1cnc(Sc3ccncc3Cl)cn1)CC2 [Example 80, (S)-1-(5-((3-chloropyridin-4-yl)thio)pyrazin-2-yl)-4′H,6′H-spiro[piperidine-4,5′-pyrrolo[1,2-b]pyrazol]-4′-amine]	≤ 50 nM			< 100 nM	
Cc1nccc(Sc2cnc(N3CCC4(CC3)Cn3nccc3[C@H]4N)cn2)c1F [Example 81, (S)-1-(5-((3-fluoro-2-methylpyridin-4-yl)thio)pyrazin-2-yl)-4′H,6′H-spiro[piperidine-4,5′-pyrrolo[1,2-b]pyrazol]-4′-amine]	≤ 50 nM			< 100 nM	
N[C@@H]1c2cccn2CC12CCN(c1cnc(Sc3ccnc(-n4cccn4)c3Cl)cn1)CC2 [Example 82, (S)-1-(5-((3-chloro-2-(1H-pyrazol-1-yl)pyridin-4-yl)thio)pyrazin-2-yl)-1′H,3′H-spiro[piperidine-4,2′-pyrrolizin]-1′-amine]	≤ 50 nM			< 100 nM	
N[C@@H]1c2ccnn2CC12CCN(c1cnc(Sc3cccc(Cl)c3Cl)cn1)CC2 [Example 83, (S)-1-(5-((2,3-dichlorophenyl)thio)pyrazin-2-yl)-4′H,6′H-spiro[piperidine-4,5′-pyrrolo[1,2-b]pyrazol]-4′-amine]	≤ 50 nM			< 100 nM	
N[C@@H]1c2ccnn2CC12CCN(c1ccc(Sc3cccc(Cl)c3Cl)nc1)CC2 [Example 84, (S)-1-(6-((2,3-dichlorophenyl)thio)pyridin-3-yl)-4′H,6′H-spiro[piperidine-4,5′-pyrrolo[1,2-b]pyrazol]-4′-amine]	≤ 50 nM			< 100 nM	
N[C@@H]1c2ccnn2CC12CCN(c1nccn3c(-c4cccc(Cl)c4Cl)ncc13)CC2 [Example 85, (S)-1-(3-(2,3-dichlorophenyl)imidazo[1,5-a]pyrazin-8-yl)-4′H,6′H-spiro[piperidine-4,5′-pyrrolo[1,2-b]pyrazol]-4′-amine]	≤ 50 nM			< 100 nM	
Cc1nc(N2CCC3(CC2)Cn2cccc2[C@H]3N)cc(=O)n1-c1cccc(Cl)c1Cl [Example 86, (S)-6-(1′-amino-1′H,3′H-spiro[piperidine-4,2′-pyrrolizin]-1-yl)-3-(2,3-dichlorophenyl)-2-methylpyrimidin-4(3H)-one]	≤ 50 nM				100 to 500 nM

Continued, in another order:

IC50 [1]	Residence time 1/koff SPR [2]	koff [2]	IC50 ([3]; KYSE-520 cells, 2 h at 37° C.)	SMILES	IC50 [3]
≤ 50 nM	17007 s	5.88e-05 s⁻¹	< 100 nM	Nc1nc(N2CCC3(CC2)Cn2ncc(Cl)c2[C@H]3N)cnc1Sc1ccnc(N)c1Cl [Example 5, (S)-1-(6-amino-5-((2-amino-3-chloropyridin-4-yl)thio)pyrazin-2-yl)-3′-chloro-4′H,6′H-spiro[piperidine-4,5′-pyrrolo[1,2-b]pyrazol]-4′-amine]	
≤ 50 nM	2740 s	0.000365 s⁻¹	< 100 nM	Nc1nccc(Sc2cnc(N3CCC4(CC3)Cn3nccc3[C@H]4N)cn2)c1Cl [Example 6, (S)-1-(5-((2-amino-3-chloropyridin-4-yl)thio)pyrazin-2-yl)-4′H,6′H-spiro[piperidine-4,5′-pyrrolo[1,2-b]pyrazol]-4′-amine]	
≤ 50 nM			< 100 nM	CNC(=O)c1ccn(-c2nccc(Sc3cnc(N4CCC5(CC4)Cn4nccc4[C@H]5N)cn3)c2Cl)c1 [Example 67, (S)-1-(4-((5-(4′-amino-4′H,6′H-spiro[piperidine-4,5′-pyrrolo[1,2-b]pyrazol]-1-yl)pyrazin-2-yl)thio)-3-chloropyridin-2-yl)-N-methyl-1H-pyrrole-3-carboxamide]	
≤ 50 nM			< 100 nM	CN(C)C(=O)c1cn2ccc(Sc3cnc(N4CCC5(CC4)Cn4nccc4[C@H]5N)cn3)c(Cl)c2n1 [Example 68, (S)-7-((5-(4′-amino-4′H,6′H-spiro[piperidine-4,5′-pyrrolo[1,2-b]pyrazol]-1-yl)pyrazin-2-yl)thio)-8-chloro-N,N-dimethylimidazo[1,2-a]pyridine-2-carboxamide]	
≤ 50 nM			< 100 nM	CN(C)C(=O)c1cnn(-c2nccc(Sc3cnc(N4CCC5(CC4)Cn4nccc4[C@H]5N)cn3)c2Cl)c1 [Example 69, (S)-1-(4-((5-(4′-amino-4′H,6′H-spiro[piperidine-4,5′-pyrrolo[1,2-b]pyrazol]-1-yl)pyrazin-2-yl)thio)-3-chloropyridin-2-yl)-N,N-dimethyl-1H-pyrazole-4-carboxamide]	
≤ 50 nM			< 100 nM	Cn1cc2c(Cl)c(-c3n[nH]c4nc(N5CCC6(CC5)Cn5nccc5[C@H]6N)cnc34)ccc2n1 [Example 70, (S)-1-(3-(4-chloro-2-methyl-2H-indazol-5-yl)-1H-pyrazolo[3,4-b]pyrazin-6-yl)-4′H,6′H-spiro[piperidine-4,5′-pyrrolo[1,2-b]pyrazol]-4′-amine]	
≤ 50 nM			100 to 500 nM	N[C@@H]1c2ccnn2CC12CCN(c1cnc3c(-c4ccnc(-n5cccn5)c4Cl)n[nH]c3n1)CC2 [Example 71, (S)-1-(3-(3-chloro-2-(1H-pyrazol-1-yl)pyridin-4-yl)-1H-pyrazolo[3,4-b]pyrazin-6-yl)-4′H,6′H-spiro[piperidine-4,5′-pyrrolo[1,2-b]pyrazol]-4′-amine]	
≤ 50 nM			100 to 500 nM	N[C@@H]1c2ccnn2CC12CCN(c1cnc3nc(Sc4ccnc(-n5cccn5)c4Cl)ccc3n1)CC2 [Example 72, (S)-1-(6-((3-chloro-2-(1H-pyrazol-1-yl)pyridin-4-yl)thio)pyrido[2,3-b]pyrazin-2-yl)-4′H,6′H-spiro[piperidine-4,5′-pyrrolo[1,2-b]pyrazol]-4′-amine]	
≤ 50 nM			< 100 nM	Nc1nccc(Sc2ccc3nc(N4CCC5(CC4)Cn4nccc4[C@H]5N)cnc3n2)c1Cl [Example 73, (S)-1-(6-((2-amino-3-chloropyridin-4-yl)thio)pyrido[2,3-b]pyrazin-2-yl)-4′H,6′H-spiro[piperidine-4,5′-pyrrolo[1,2-b]pyrazol]-4′-amine]	
≤ 50 nM			100 to 500 nM	N[C@@H]1c2ccnn2CC12CCN(c1cnc(Sc3ccnc(-n4cccn4)c3Cl)c3cncn13)CC2 [Example 75, (S)-1-(8-((3-chloro-2-(1H-pyrazol-1-yl)pyridin-4-yl)thio)imidazo[1,5-a]pyrazin-5-yl)-4′H,6′H-spiro[piperidine-4,5′-pyrrolo[1,2-b]pyrazol]-4′-amine]	
≤ 50 nM			< 100 nM	Cn1c(N2CCC3(CC2)Cn2nccc2[C@H]3N)ncc(Sc2ccnc(N)c2Cl)c1=O [Example 76, (S)-5-((2-amino-3-chloropyridin-4-yl)thio)-2-(4′-amino-4′H,6′H-spiro[piperidine-4,5′-pyrrolo[1,2-b]pyrazol]-1-yl)-3-methylpyrimidin-4(3H)-one]	
≤ 50 nM			100 to 500 nM	Cc1nc(N2CCC3(CC2)Cn2nccc2[C@H]3N)cc(=O)n1-c1cccc(Cl)c1Cl [Example 77, (S)-6-(4′-amino-4′H,6′H-spiro[piperidine-4,5′-pyrrolo[1,2-b]pyrazol]-1-yl)-3-(2,3-dichlorophenyl)-2-methylpyrimidin-4(3H)-one]	
≤ 50 nM			100 to 500 nM	Cc1nc(N2CCC3(CC2)Cn2nccc2[C@H]3N)c(Cl)c(=O)n1-c1cccc(Cl)c1Cl [Example 78, (S)-6-(4′-amino-4′H,6′H-spiro[piperidine-4,5′-pyrrolo[1,2-b]pyrazol]-1-yl)-5-chloro-3-(2,3-dichlorophenyl)-2-methylpyrimidin-4(3H)-one]	
